These results are taken from patent publication US8822698B2, “Aminoacid derivatives, their process of preparation and their therapeutical uses as inhibitors of oncogenic signals by the Met family” (Universite D'Aix-Marseille, priority 2009, dated 2014).

Like-named read-outs stand apart in the source and are kept apart here. Some results are limits rather than exact numbers.

In one data set the test system is MDCK cells. Nature of the data set: Toxicity observed in the cell scattering screening. In kind it is cell-based. As for the experimental part: (§1) For scattering assays, MDCK cells were pre-incubated with compounds for 2 hours at 0.1-100 μM concentrations at 37° C. in a humidified atmosphere of 5% CO2, followed by 24 hr stimulation with 20 ng/ml HGF (R&D Systems), as previously described (Patane et al., Biochem Biophys Res Commun 375, 184-189, 2008). The cells were further incubated at 37° C. in an atmosphere of 5% CO2 for 24-48 hours, washed with phosphate-buffered saline (PBS; Gibco BRL), and fixed in PFA (Sigma). The quantification of scattering response was performed by counting the number of cells with scattered morphology in 30 independent colonies. The […] corresponds to the concentration of compounds leading to a 50% inhibition of Met-triggered cell scattering. Active compounds were assayed to impair scattering response also on human breast MCF10A cells following the same procedure. For survival assays, GTL-16, HepG2 and U-87 cells were cultured in serum-free media for 24 hours prior to compound addition for 48 hours. Viability was assessed with the Cell Titer Glo Luminescent Assay (Promega). For in vitro tumorigenesis, soft agar growth assays were preformed using GTL-16, HepG2, and U-87 cells, as previously described (Patane et al., Cancer Res 66, 4750-4757, 2006).
Compounds of examples 1 (XIII), 2 (XIV), 4 (XVI), 5 (XVII), and 6 (XVIII) in particular elicit inhibitory activity on Met-triggered cell scattering. […] The SU11274 (Met inhibitor; Sugen) was used as reference compound. […] These findings were further supported by analysing the inhibitory activity of compounds on breast cells. […] Altogether, these studies identify a new class of compounds of general formula (I), which are able to interfere with Met-triggered cell scattering.

For the next data set, the system named is HepG2 cells. Description: Soft agar anchorage-independent growth (in vitro tumorigenesis), HepG2. The data set is classed as cell-based. Particulars: Homo sapiens, read-out: HepG2 IC 50. As for the experimental part:
(§2) MDCK cells were grown in Dulbecco's modified Eagle's medium (DMEM) (Gibco BRL) containing 4 mM L-glutamine and supplemented with 2% (v/v) foetal bovine serum (Gibco BRL), 100 U/mL penicillin, and 100 μg/mL streptomycin. Cells were plated at a density of 1000 cells per well in 24-well microplates and allowed to settle overnight at 37° C. in a humidified atmosphere of 5% CO2 prior to treatments. MCF10A human breast cells, MDA-MB231 human breast cancer cells, GTL-16 human gastric carcinoma cells, HepG2 human hepatocellular carcinoma cells, U-87 human glioblastoma-astrocytoma cells and LLC Lewis lung carcinoma cells were grown in RPMI medium (Gibco BRL) containing 4 mM L-glutamine and supplemented with 2% (v/v) foetal bovine serum (Gibco BRL), 100 U/mL penicillin, and 100 μg/mL streptomycin and kept at 37° C. in a humidified atmosphere of 5% CO2.
For scattering assays, MDCK cells were pre-incubated with compounds for 2 hours at 0.1-100 μM concentrations at 37° C. in a humidified atmosphere of 5% CO2, followed by 24 hr stimulation with 20 ng/ml HGF (R&D Systems), as previously described (Patane et al., Biochem Biophys Res Commun 375, 184-189, 2008). […] The quantification of scattering response was performed by counting the number of cells with scattered morphology in 30 independent colonies. […] Viability was assessed with the Cell Titer Glo Luminescent Assay (Promega). […]

Data set [1] concerns Met phosphorylation, HepG2 cells. Nature of the data set: Met phosphorylation upon HGF stimulation in HepG2 cells. The data set is classed as cell-based, human. Here is the method:
After starvation, cells were pretreated with inhibitors, then stimulated with HGF, and total extracts were analyzed as described (Maina et al., Mol Cell 7, 1293-1306, 2001). Antibodies used were anti-tubulin (Sigma), anti-phospho Y1234-1235-Met, anti-Akt, anti-phospho-Akt, anti-phospho-Gab1, anti phosphor-ErbBs, anti-phospho-PDGFR, anti-PDGFRs, anti-ERKs (Cell Signaling), anti-ErbBs, anti-Met (Santa Cruz).
Activation of Met by HGF can be biochemically evaluated by following its phosphorylation levels and activation of downstream targets. We started to biochemically characterise the inhibitory properties of identified compounds by following Met phosphorylation and its downstream targets in HepG2 cells. […] These findings were further supported using other cell lines, such as MDA-MB231 human breast cancer cells (FIG. 2).

Data set [2] deals with GTL-16 cells. The conditions noted are these: Zou et al., 2007; cited from earlier work.
Data set [3] has as its system Met-triggered cell scattering, MDCK cells. Description: HGF-induced MDCK cell scattering assay. In kind it is cell-based. Particulars: Canis lupus familiaris. Here is the method: as §2, §1
Compounds were first submitted to a biological screening of cell motility, namely scattering response. MDCK epithelial cells acquire a “scattered phenotype” following stimulation by the Met ligand, HGF (Chan et al., J Biomol Screen. 13, 847-854, 2008; Corso et al., Trends Mol Med 11, 284-292, 2005; Patane et al., Biochem Biophys Res Commun 375, 184-189, 2008), allowing direct evaluation of compounds on Met functions. The Met inhibitor […] was used as control in all assays (Schiering et al., Proc Natl Acad Sci USA 100, 12654-12659, 2003).

The test system of data set [4] is GTL-16 cells. Description: Soft agar anchorage-independent growth (in vitro tumorigenesis), GTL-16. In kind it is cell-based, human. Particulars: Homo sapiens; soft agar growth, GTL-16. Here is the method: as §2
as §1, with “2006). […]” for “2006).”

[5] abbreviates: MDCK cells, 20 ng/ml HGF, read-out: IC50 scattering inhibition.

For `Cc1cc(C)cc(CC(=O)N[C@@H](Cc2ccccc2)C(=O)Nc2ccc(-c3cn4c(n3)sc3ccccc34)cc2)c1` [Example 1, (S)-2-(3,5-dimethylphenylacetamido)-3-phenyl-N-[4-(imidazo[2,1-b]benzothiazol-2-yl)phenyl]propanamide], in the data set on MDCK cells (Table 1, scattering screening), the Toxicity is more than 100 µM. Also, the IC50 in the data set on HepG2 cells was 2730 nM. For the same molecule, the Met phosphorylation result in data set [1] is “significantly reduced”.

In turn, `Cc1cc(C)cc(CC(=O)N[C@H](Cc2ccccc2)C(=O)Nc2ccc(-c3cn4c(n3)sc3ccccc34)cc2)c1` [Example 2, (R)-2-(3,5-dimethylphenylacetamido)-3-phenyl-N-[4-(imidazo[2,1-b]benzothiazol-2-yl)phenyl]propanamide] came in with a Toxicity in the data set on MDCK cells (Table 1, scattering screening) of more than 100 µM.

With `Cc1[nH]c(/C=C2\C(=O)Nc3ccc(S(=O)(=O)N(C)c4cccc(Cl)c4)cc32)c(C)c1C(=O)N1CCN(C)CC1` [SU11274, (3Z)—N-(3-Chlorophenyl)-3-({3,5-dimethyl-4-[(4-methylpiperazin-1-yl)carbonyl]-1H-pyrrol-2-yl}methylene)-N-methyl-2-oxo-2,3-dihydro-1H-indole-5-sulfonamide, reference compound], the “Soft-agar growth of GTL-16 cells” value with GTL-16 cells [2] is recorded as “impaired”. Also, the IC50 in data set [3] (setting [5]) came to 251 nM.

With `O=C(Cc1cc(C(F)(F)F)cc(C(F)(F)F)c1)N[C@H](Cc1ccccc1)C(=O)Nc1ccc(-c2cn3c(n2)sc2ccccc23)cc1` [Example 5, (R)-2-(3,5-bis(trifluoromethyl)phenylacetamido)-3-phenyl-N-[4-(imidazo[2,1-b]benzothiazol-2-yl)phenyl]propanamide], the Toxicity in the data set on MDCK cells (Table 1, scattering screening) was more than 50 µM. Further, the values for the IC50 (in data set [3] (setting [5]); in the data set with GTL-16 cells [4]) were 206 nM and 1190 nM, respectively.

Take `C[C@@H](NC(=O)Cc1cc(F)cc(F)c1)C(=O)Nc1ccc(-c2cn3c4c(sc3n2)CCCC4)cc1` [reference compound]: the Toxicity entry with MDCK cells (comparative compound, toxic at this concentration) is listed as “at 100 μM”. Further, the IC50 in data set [3] (MDCK, comparative compound, same test, read-out: Scattering inhibition) was 10000 nM.

With `O=C(Cc1cc(F)cc(F)c1)N[C@@H](Cc1ccccc1)C(=O)Nc1ccc(-c2cn3c(n2)sc2ccccc23)cc1` [Example 6], the Toxicity with MDCK cells (Table 1, scattering screening) is more than 100 µM.
